Reference: ChEMBL document CHEMBL1201862, “PubChem BioAssay data set” (2004)
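48-hour exposure; five concentrations; linearly interpolated endpoints. The concentration for 50% growth inhibition is given as GI50.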 Activity calls are given as the source filed them. Cut-off read from the data, not from the text of the source: active = GI50 up to about 1.1 µM and inactive = higher.

Tests used:
Assay in all cases: NCI-60 cell line screen, 48 h
SF-295 = test system: SF-295
SK-OV-3 = test system: SK-OV-3
RPMI-8226 = test system: RPMI-8226
KM12 = test system: KM12
A498 = test system: A498
MCF7 = test system: MCF7
NCI-H460 = test system: NCI-H460
NCI-H23 = test system: NCI-H23
NCI/ADR-RES = test system: NCI/ADR-RES
T47D = test system: T47D
EKVX = test system: EKVX
HOP-62 = test system: HOP-62
HCC 2998 = test system: HCC 2998
HCT-15 = test system: HCT-15
SF-268 = test system: SF-268
PC-3 = test system: PC-3
CAKI-1 = test system: CAKI-1
BT-549 = test system: BT-549
OVCAR-4 = test system: OVCAR-4
SW-620 = test system: SW-620
OVCAR-8 = test system: OVCAR-8
MOLT-4 = test system: MOLT-4
DU-145 = test system: DU-145
ACHN = test system: ACHN
HT-29 = test system: HT-29
Hs-578T = test system: Hs-578T
SF-539 = test system: SF-539
OVCAR-5 = test system: OVCAR-5
Malme-3M = test system: Malme-3M
UACC-257 = test system: UACC-257
M14 = test system: M14
OVCAR-3 = test system: OVCAR-3
A549 = test system: A549
UACC-62 = test system: UACC-62
SR = test system: SR
CCRF-CEM = test system: CCRF-CEM
HL-60 = test system: HL-60
SN12C = test system: SN12C
SK-MEL-2 = test system: SK-MEL-2
K562 = test system: K562
SNB-19 = test system: SNB-19
SK-MEL-28 = test system: SK-MEL-28
MDA-MB-435 = test system: MDA-MB-435
MDA-N = test system: MDA-N
786-0 = test system: 786-0
IGROV-1 = test system: IGROV-1
LOX IMVI = test system: LOX IMVI
HCT-116 = test system: HCT-116
SK-MEL-5 = test system: SK-MEL-5
U-251 = test system: U-251
UO-31 = test system: UO-31
NCI-H522 = test system: NCI-H522
COLO 205 = test system: COLO 205
RXF 393 = test system: RXF 393
MDA-MB-231 = test system: MDA-MB-231
HOP-92 = test system: HOP-92
NCI-H226 = test system: NCI-H226
SNB-75 = test system: SNB-75
TK-10 = test system: TK-10

## COc1ccc(NC(=S)c2ccc(CN3CCCCC3)s2)cc1
SF-295
  GI50: 18.3 µM (inactive)
SK-OV-3
  GI50: 16.4 µM (inactive)
RPMI-8226
  GI50: 23.4 µM (inactive)
KM12
  GI50: 17.7 µM (inactive)
A498
  GI50: 16.2 µM (inactive)
MCF7
  GI50: 17 µM (inactive)
NCI-H460
  GI50: 17.5 µM (inactive)
NCI-H23
  GI50: 12.5 µM (inactive)
NCI/ADR-RES
  GI50: 23 µM (inactive)
T47D
  GI50: 19.8 µM (inactive)
EKVX
  GI50: 18.8 µM (inactive)
HOP-62
  GI50: 20.6 µM (inactive)
HCC 2998
  GI50: 16.6 µM (inactive)
HCT-15
  GI50: 12.8 µM
SF-268
  GI50: 18 µM (inactive)
PC-3
  GI50: 25.6 µM (inactive)
CAKI-1
  GI50: 27.9 µM (inactive)
BT-549
  GI50: 17 µM (inactive)
OVCAR-4
  GI50: 29 µM (inactive)
SW-620
  GI50: 19.4 µM (inactive)
OVCAR-8
  GI50: 17.9 µM (inactive)
MOLT-4
  GI50: 20.1 µM (inactive)
DU-145
  GI50: 38.2 µM (inactive)
ACHN
  GI50: 31 µM (inactive)
HT-29
  GI50: 5.46 µM (inactive)
Hs-578T
  GI50: 12.6 µM (inactive)
SF-539
  GI50: 43.9 µM (inactive)
OVCAR-5
  GI50: 16.4 µM (inactive)
Malme-3M
  GI50: 17.5 µM (inactive)
UACC-257
  GI50: 16.6 µM (inactive)
M14
  GI50: 16.7 µM (inactive)
OVCAR-3
  GI50: 33.6 µM (inactive)
A549
  GI50: 20.3 µM (inactive)
UACC-62
  GI50: 17.1 µM (inactive)
SR
  GI50: 16.8 µM (inactive)
CCRF-CEM
  GI50: 14.8 µM (inactive)
HL-60
  GI50: 14.3 µM (inactive)
SN12C
  GI50: 47 µM (inactive)
SK-MEL-2
  GI50: 19.4 µM (inactive)
K562
  GI50: 12.5 µM (inactive)
SNB-19
  GI50: 21.3 µM (inactive)
SK-MEL-28
  GI50: 17.3 µM (inactive)
MDA-MB-435
  GI50: 19.6 µM (inactive)
MDA-N
  GI50: 18.5 µM (inactive)
786-0
  GI50: 17.8 µM (inactive)
IGROV-1
  GI50: 22.8 µM (inactive)
LOX IMVI
  GI50: 18.1 µM (inactive)
HCT-116
  GI50: 16.9 µM (inactive)
SK-MEL-5
  GI50: 14.3 µM (inactive)
U-251
  GI50: 17.1 µM (inactive)
UO-31
  GI50: 18.4 µM (inactive)
NCI-H522
  GI50: 14.8 µM (inactive)
COLO 205
  GI50: 16.2 µM (inactive)

## Cc1c2c(n3c(nc4ccccc43)c1C#N)N(c1ccc(Cl)cc1)CC2
SF-295
  GI50: > 100 µM (inactive)
SK-OV-3
  GI50: 96.4 µM (inactive)
A498
  GI50: > 100 µM (inactive)
MCF7
  GI50: > 100 µM (inactive)
NCI-H460
  GI50: > 100 µM (inactive)
NCI-H23
  GI50: > 100 µM (inactive)
NCI/ADR-RES
  GI50: > 100 µM (inactive)
EKVX
  GI50: > 100 µM (inactive)
HOP-62
  GI50: > 100 µM (inactive)
HCC 2998
  GI50: > 100 µM (inactive)
HCT-15
  GI50: > 100 µM
SF-268
  GI50: > 100 µM (inactive)
PC-3
  GI50: > 100 µM (inactive)
RXF 393
  GI50: > 100 µM (inactive)
CAKI-1
  GI50: > 100 µM (inactive)
BT-549
  GI50: > 100 µM (inactive)
OVCAR-4
  GI50: > 100 µM (inactive)
MDA-MB-231
  GI50: > 100 µM (inactive)
SW-620
  GI50: > 100 µM (inactive)
OVCAR-8
  GI50: > 100 µM (inactive)
DU-145
  GI50: > 100 µM (inactive)
ACHN
  GI50: > 100 µM (inactive)
HT-29
  GI50: > 100 µM (inactive)
Hs-578T
  GI50: > 100 µM (inactive)
SF-539
  GI50: > 100 µM (inactive)
OVCAR-5
  GI50: > 100 µM (inactive)
Malme-3M
  GI50: > 100 µM (inactive)
UACC-257
  GI50: > 100 µM (inactive)
M14
  GI50: > 100 µM (inactive)
OVCAR-3
  GI50: > 100 µM (inactive)
A549
  GI50: > 100 µM (inactive)
UACC-62
  GI50: > 100 µM (inactive)
CCRF-CEM
  GI50: > 100 µM (inactive)
HOP-92
  GI50: > 100 µM (inactive)
NCI-H226
  GI50: > 100 µM (inactive)
HL-60
  GI50: > 100 µM (inactive)
SN12C
  GI50: > 100 µM (inactive)
SK-MEL-2
  GI50: > 100 µM (inactive)
K562
  GI50: > 100 µM (inactive)
SNB-75
  GI50: > 100 µM (inactive)
SNB-19
  GI50: > 100 µM (inactive)
SK-MEL-28
  GI50: > 100 µM (inactive)
MDA-MB-435
  GI50: > 100 µM (inactive)
MDA-N
  GI50: > 100 µM (inactive)
786-0
  GI50: > 100 µM (inactive)
IGROV-1
  GI50: > 100 µM (inactive)
LOX IMVI
  GI50: > 100 µM (inactive)
TK-10
  GI50: > 100 µM (inactive)
HCT-116
  GI50: > 100 µM (inactive)
SK-MEL-5
  GI50: > 100 µM (inactive)
U-251
  GI50: > 100 µM (inactive)
UO-31
  GI50: > 100 µM (inactive)
NCI-H522
  GI50: > 100 µM (inactive)
COLO 205
  GI50: > 100 µM (inactive)

## C/C(=N\Nc1nc2ccccc2[nH]1)c1cnccn1
SF-295
  GI50: 1.77 µM (inactive)
SK-OV-3
  GI50: 0.607 µM (active)
RPMI-8226
  GI50: 0.533 µM (active)
KM12
  GI50: 1.12 µM (active)
A498
  GI50: 1.98 µM (inactive)
MCF7
  GI50: 0.542 µM (active)
NCI-H460
  GI50: 0.394 µM (active)
NCI-H23
  GI50: 1.71 µM (inactive)
NCI/ADR-RES
  GI50: 0.64 µM (active)
T47D
  GI50: 0.437 µM (active)
EKVX
  GI50: 0.491 µM (active)
HOP-62
  GI50: 0.619 µM (active)
HCC 2998
  GI50: 19.6 µM (inactive)
HCT-15
  GI50: 0.313 µM
SF-268
  GI50: 0.53 µM (active)
PC-3
  GI50: 3.92 µM (inactive)
RXF 393
  GI50: 0.392 µM (active)
CAKI-1
  GI50: 0.447 µM (active)
BT-549
  GI50: 6.04 µM (inactive)
OVCAR-4
  GI50: 0.617 µM (active)
MDA-MB-231
  GI50: 2.88 µM (inactive)
SW-620
  GI50: 0.4 µM (active)
OVCAR-8
  GI50: 0.8 µM (active)
MOLT-4
  GI50: 0.232 µM (active)
ACHN
  GI50: 0.231 µM (active)
HT-29
  GI50: 0.394 µM (active)
Hs-578T
  GI50: 19.8 µM (inactive)
SF-539
  GI50: 0.713 µM (active)
OVCAR-5
  GI50: 6.84 µM (inactive)
Malme-3M
  GI50: 0.791 µM (active)
UACC-257
  GI50: 2.94 µM (inactive)
M14
  GI50: 0.614 µM (active)
OVCAR-3
  GI50: 0.296 µM (active)
A549
  GI50: 1.88 µM (inactive)
UACC-62
  GI50: 0.652 µM (active)
CCRF-CEM
  GI50: 0.31 µM (active)
HOP-92
  GI50: 0.385 µM (active)
NCI-H226
  GI50: 0.441 µM (active)
HL-60
  GI50: 0.0589 µM (active)
SN12C
  GI50: 1.25 µM (inactive)
SK-MEL-2
  GI50: 1.45 µM (inactive)
K562
  GI50: 1.23 µM (inactive)
SNB-75
  GI50: 3.61 µM (inactive)
SNB-19
  GI50: 2.72 µM (inactive)
SK-MEL-28
  GI50: 0.506 µM (active)
MDA-MB-435
  GI50: 0.822 µM (active)
MDA-N
  GI50: 1.9 µM (inactive)
786-0
  GI50: 0.263 µM (active)
IGROV-1
  GI50: 0.139 µM (active)
LOX IMVI
  GI50: 0.361 µM (active)
TK-10
  GI50: 4.09 µM (inactive)
HCT-116
  GI50: 0.379 µM (active)
SK-MEL-5
  GI50: 0.881 µM (active)
U-251
  GI50: 0.628 µM (active)
UO-31
  GI50: 0.548 µM (active)
NCI-H522
  GI50: 0.169 µM (active)
COLO 205
  GI50: 0.415 µM (active)
